# In patent US20220202801A1, “USE OF COMPOUND IN PREPARATION OF DRUG FOR TREATING ATHEROSCLEROSIS” (GenEros Biopharma Ltd., priority 2019, published 2022):
# Key:
# [1] = system: ApoE knockout mice; assay: Blood lipid metabolism TG, TCHO, HDL-c, LDL-c (Example 2); type: in vivo
# Text: (§1) Methods: A total of 130 SPF grade C57BL/6 ApoE −/− model male mice aged 8 weeks were purchased from Charles River Laboratories (Beijing, China) (animal license number: SCXK (Beijing) 2016-0001, animal qualification certificate No.: 11400700331337). After one week of acclimatization in a SPF-grade animal facility, the animals with less weights were discarded and the rest was randomly divided into 11 groups, with 8 animals in each group. Except for the healthy control group, the rest were fed with 10% high-fat food (the first day of the high-fat diet was recorded as D1). Starting from the 8th week of the high-fat diet, each group of animals was orally given solvents or corresponding drugs, and the volume of administration was 10 ml/kg, once a day for 8 weeks. Animals were observed and administered by gavage once a day and the body weight were measured once a week for 56 days. […] The store solution of the test samples was dissolved in dimethyl sulfoxide solution and prepared with 30% PEG300.
# At the end of the experiment, the animals were euthanized by inhalation of carbon dioxide. Blood was taken from the heart, and centrifuged at 3000 r/min at a low temperature centrifuge for 10 min to separate the serum. The levels of total cholesterol TC, triglyceride TG, high-density lipoprotein HDL-C, and low-density lipoprotein LDL-C were measured, and the remaining serum was stored in a refrigerator at −80° C.
# Before the start of the experiment, animal blood samples were analyzed for blood lipid metabolism, including conventional triglyceride (TG), total cholesterol (TCHO), high-density lipoprotein (HDL-c) and low-density lipoprotein (LDL-c). After high-fat or ordinary food feeding for 8 weeks, the blood lipid levels were measured again. After the drug treatment was started, blood lipid measurements were performed every four weeks until the end of the experiment.
# [2] = system: atherosclerosis model induced by high-fat diet in ApoE knockout mice; assay: Ratio of atherosclerotic plaque area to total inner wall area of the aorta (En-Face, oil red; Example 2); type: in vivo; conditions: for Mean of Plaque Ratio (plaque area to total inner wall area of aorta): high-fat diet; for symptoms of atherosclerosis under therapeutic intervention (mainly plaque area ratio): different doses, Example 2
# Text: as §1
# Immediately after blood was taken from the heart, it was perfused through the left ventricle with 20 ml of normal saline. After bloodletting, the heart and aorta (from the aortic arch to the iliac artery) were isolated. The isolated artery was cut longitudinally from the aortic arch to the iliac artery, fixed in 4% paraformaldehyde for 30 minutes, synchronized with 60% isopropanol for 10 minutes, stained in 60% oil red for 30 minutes, and washed by 60% isopropanol 3 times, 5 minutes each time. Finally, the colored aorta was washed with deionized water and photographed. The proportion of the red plaque area was measured by Image Pro Plus 6.0 (Media Cybernetics, MD, US). The heart samples were fixed in 4% paraformaldehyde solution overnight and then placed in sucrose solution for dehydration. Then, it was embedded with OCT (Sakura, Japan) under a stereo microscope and made into 7 μm frozen sections. After HE staining, the slices were used for routine pathological examination. The outflow tract images were collected under an optical microscope at 4* magnification, and 4*, 10*, 20* and 40* magnification eyepieces were used for high-quality morphological observation. The detection standard referred to the histological classification standard of human atherosclerosis disease.
# Evaluate the effect of different therapeutic drugs by the ratio of the area of atherosclerotic plaque to the total area of the inner wall of the aortic vessel (En-Face)
# We adopted the widely accepted standard for the severity of arteriosclerosis in animal models, and analyzed the area of all plaques on the inner wall of the aorta. […] FIGS. 46A and 46B are histograms of the ratios of plaque area on the inner wall of the aorta in each treatment group. The values in FIGS. 46A and 46B are the ratios of plaques to the total area of the inner wall in each group, and the error is standard error±SEM. The statistical significance analysis is as follows: ***P<0.001 compared with the normal control group; #P<0.05 compared with the vehicle group; ##P<0.01, ###P<0.001, compared with the vehicle group through one-way ANOVA Dunnett's test; & represents P<0.05, compared with the vehicle group by t test.
# [3] = system: ICAM-1; assay: Immunohistochemistry of aortic wall, ICAM-1; type: in vivo, mice; conditions: IHC-P×400, single animal micrograph, 20 mg/kg
# Text: (§2) Methods: SPF grade C57BL/6 ApoE −/−model mice were provided by Guangdong Medical Experimental Animal Center, laboratory animal production license No. SOCK (Guangdong) 2013-0002. Laboratory animal quality certificate number: 44007200048196). Mice were half male and half female, aged 8 to 12 weeks, and 72 animals in total. After four weeks of housing in a SPF-level animal facility, animals with less body weights were disposed. A total of 64 animals were randomly divided into 8 groups, 8 in each group, fed with 10% high-fat food, and received with different treatments. Animals were observed and administered with the medicines by gavage once daily. The body weights were measured once a week and continued for 58 days. […] The test sample was dissolved in dimethyl sulfoxide solution and prepared with 30% PEG300.
# (§3) After blood collection, the animals were sacrificed, and the aortic arch together with the heart and thoracic aorta were fixed with neutral formaldehyde and subject to pathological examination. The abdominal aorta was collected and quick-frozen in liquid nitrogen, and stored at −80° C.
# (§4) c) Immunohistochemistry: The thoracic aorta was sliced and detected by immunohistochemistry for the expression of CD68, intercellular adhesion molecule-1 (ICAM-1), and vascular cell adhesion Molecule-1 (VCAM-1).
# [4] = system: CD68; assay: Immunohistochemistry of aortic wall, CD68; type: in vivo, mice; conditions: IHC-P×400, single animal micrograph, 20 mg/kg
# Text: as §2, §3, §4
# [5] = system: VCAM-1; assay: Immunohistochemistry of aortic wall, VCAM-1; type: in vivo, mice; conditions: IHC-P×400, single animal micrograph, 20 mg/kg
# Text: as §2, §3, §4
# [6] = Body weight of ApoE knockout mice on high-fat food (Example 1); type: in vivo; conditions: 20 mg/kg gavage QD
# Text: as §2
# Statistical analysis: Data were expressed as the mean plus or minus the standard deviation (x± s), and analyzed by SPSS21.0 statistical software. The weight data of each group were compared by repeated measures analysis of variance; the blood lipid levels of the statin treatment group were compared with the model control group by independent sample T test; the blood lipid levels of the test samples A and B were compared with the model control group by one-way analysis of variance, and LSD method was used for the comparison among groups. The level of test is α=0.05.
# [7] = system: atherosclerotic lesions in ApoE knockout mice; assay: Aortic HE and oil red O staining, atherosclerotic lesion scores (Example 1); type: in vivo
# Text: as §2, §3
# a) HE staining: aortic arch was sliced and HE stained. The plaques were observed under optical microscope.
# b) Oil red O staining: aortic arch was sliced and oil red O stained. The plaques were observed under optical microscope.
# [8] = system: ApoE knockout mice; assay: Four blood lipids in serum of ApoE knockout mice (Example 1); type: in vivo; conditions: serum
# Text: as §2
# At the end of the experiment, animals were anesthetized with pentobarbital sodium. Blood was collected from the orbital venous plexus, and centrifuged at 3000 r/min at a low temperature for 10 min to separate the serum. The levels of total cholesterol TC, triglyceride TG, high-density lipoprotein HDL-C, and low-density lipoprotein LDL-C were measured, and the remaining serum was stored in a refrigerator at −80° C.
# Statistical analysis: Data were expressed as the mean plus or minus the standard deviation (x± s), and analyzed by SPSS21.0 statistical software. […] The level of test is α=0.05.
# [9] = of 8 animals, 20 mg/kg body weight
# [10] = half male and female, 20 mg/kg body weight
# [11] = ♀, 20 mg/kg gavage QD, 58 days, 20 mg/kg
# [12] = ♀, 20 mg/kg gavage QD, 58 days, listed as statin, 20 mg/kg
# [13] = ♂, 20 mg/kg gavage QD, 58 days, 20 mg/kg
# [14] = ♂, 20 mg/kg gavage QD, 58 days, listed as statin, 20 mg/kg
compound,measurement,setting,value
"O=C(Cc1ccc(C(F)(F)F)cc1)N1CCC(n2c(=O)[nH]c3ccccc32)CC1 [Sample X8, 1-(1-(2-(4-(trifluoromethyl)phenyl)acetyl)piperidin-4-yl)-1H-benzo[d]imidazole-2(3H)-one]",effect on high-density lipoprotein (HDL-c) level compared with the vehicle group,[1],no obvious effect
same,effect on low-density lipoprotein (LDL-c) level compared with the vehicle group,[1],significantly reduce
same,effect on total cholesterol (TCHO) level compared with the vehicle group,[1],significantly reduce
same,effect on triglyceride (TG) level compared with the vehicle group,[1],significantly reduce
same,Mean of Plaque Ratio (plaque area to total inner wall area of aorta),[2]; 5 mpk PO QD 8 weeks,9.02%
same,Mean of Plaque Ratio (plaque area to total inner wall area of aorta),[2]; 10 mpk PO QD 8 weeks,6.93%
same,symptoms of atherosclerosis under therapeutic intervention (mainly plaque area ratio),[2],significantly alleviate the symptoms of atherosclerosis
"Cc1ccc(CC(=O)N2CCC(n3c(=O)[nH]c4ccccc43)CC2)cc1 [Sample X7, 1-(1-(2-(p-tolyl)acetyl)piperidin-4-yl)-1H-benzo[d]imidazole-2(3H)-one]",effect on high-density lipoprotein (HDL-c) level compared with the vehicle group,[1],no obvious effect
same,effect on low-density lipoprotein (LDL-c) level compared with the vehicle group,[1],significantly reduce
same,effect on total cholesterol (TCHO) level compared with the vehicle group,[1],significantly reduce
same,effect on triglyceride (TG) level compared with the vehicle group,[1],significantly reduce
same,Mean of Plaque Ratio (plaque area to total inner wall area of aorta),[2]; 5 mpk PO QD 8 weeks,9.00%
same,symptoms of atherosclerosis under therapeutic intervention (mainly plaque area ratio),[2],significantly alleviate the symptoms of atherosclerosis
"CC(C)c1c(C(=O)Nc2ccccc2)c(-c2ccccc2)c(-c2ccc(F)cc2)n1CC[C@@H](O)C[C@@H](O)CC(=O)[O-].CC(C)c1c(C(=O)Nc2ccccc2)c(-c2ccccc2)c(-c2ccc(F)cc2)n1CC[C@@H](O)C[C@@H](O)CC(=O)[O-].[Ca+2] [Statin, Atorvastatin calcium, reference compound]",effect on total cholesterol (TCHO) level compared with the vehicle group,[1],reduce
same,effect on triglyceride (TG) level compared with the vehicle group,[1],increase
same,aorta (ICAM-1) signal expression in blood vessels,[3],low to medium
same,aorta (CD68) signal expression in blood vessels,[4],low to medium
same,aorta (VCAM-1) signal expression in blood vessels,[5],low to medium
same,body weight,"[6]; d1, half male and female",25.1 ± 4.2 g
same,body weight,"[6]; d1, ♀",21.2 ± 0.9 g
same,body weight,"[6]; d1, ♂",28.9 ± 1.2 g
same,body weight,"[6]; d8, half male and female",25.4 ± 3.8 g
same,body weight,"[6]; d8, ♀",22.0 ± 0.6 g
same,body weight,"[6]; d8, ♂",28.9 ± 0.9 g
same,body weight,"[6]; d15, half male and female",25.3 ± 4.1 g
same,body weight,"[6]; d15, ♀",21.5 ± 0.7 g
same,body weight,"[6]; d15, ♂",29.0 ± 1.1 g
same,body weight,"[6]; d22, half male and female",25.2 ± 4.2 g
same,body weight,"[6]; d22, ♀",21.4 ± 0.6 g
same,body weight,"[6]; d22, ♂",29.0 ± 1.4 g
same,body weight,"[6]; d29, half male and female",25.2 ± 4.2 g
same,body weight,"[6]; d29, ♀",21.4 ± 0.6 g
same,body weight,"[6]; d29, ♂",29.1 ± 1.2 g
same,body weight,"[6]; d36, half male and female",25.7 ± 3.8 g
same,body weight,"[6]; d36, ♀",22.2 ± 0.9 g
same,body weight,"[6]; d36, ♂",29.2 ± 1.0 g
same,body weight,"[6]; d43, half male and female",26.0 ± 3.9 g
same,body weight,"[6]; d43, ♀",22.4 ± 0.5 g
same,body weight,"[6]; d43, ♂",29.6 ± 0.8 g
same,body weight,"[6]; d50, half male and female",26.5 ± 3.7 g
same,body weight,"[6]; d50, ♀",23.1 ± 0.9 g
same,body weight,"[6]; d50, ♂",29.8 ± 0.6 g
same,body weight,"[6]; d57, half male and female",26.4 ± 4.1 g
same,body weight,"[6]; d57, ♀",22.7 ± 0.8 g
same,body weight,"[6]; d57, ♂",30.0 ± 1.6 g
same,body weight,"[6]; d58, half male and female",26.2 ± 3.8 g
same,body weight,"[6]; d58, ♀",22.8 ± 0.5 g
same,body weight,"[6]; d58, ♂",29.7 ± 1.4 g
same,Mild n (number of animal cases with mild lesions),[7]; [9],0
same,Moderate n (number of animal cases with moderate lesions),[7]; [9],3
same,No lesion n (number of animal cases),[7]; [9],3
same,Severe n (number of animal cases with severe lesions),[7]; [9],2
same,animals that had atherosclerosis (histological observation),"[7]; of 8 aortas examined, 20 mg/kg",5 cases
same,"Scores (atherosclerotic lesion score, average of the group)","[7]; score 0-3 per Table 8, 20 mg/kg body weight",1.50 ± 1.31
same,LDL-C,[8]; [10],5.60 ± 1.19 mmol/L
same,TC,[8]; [10],18.15 ± 2.38 mmol/L
same,TG,"[8]; half male and female, 20 mg/kg body weight, 20 mg/kg",0.71 ± 0.19 mmol/L
same,TG,"[8]; half male and female, 20 mg/kg body weight, listed as statin, 20 mg/kg",lower
same,LDL-C,"[8]; ♀, 20 mg/kg gavage QD, 58 days",5.03 ± 0.57 mmol/L
same,HDL-C,[8]; [11],1.44 ± 0.09 mmol/L
same,TC,[8]; [11],16.85 ± 1.76 mmol/L
same,TG,[8]; [11],0.65 ± 0.06 mmol/L
same,HDL-C,[8]; [12],"reduced to varying degrees, but there was no statistical difference"
same,TC,[8]; [12],"reduced to varying degrees, but there was no statistical difference"
same,TG,[8]; [12],"reduced to varying degrees, but there was no statistical difference"
same,LDL-C,"[8]; ♂, 20 mg/kg gavage QD, 58 days",6.17 ± 1.46 mmol/L
same,HDL-C,[8]; [13],1.92 ± 0.62 mmol/L
same,TC,[8]; [13],19.45 ± 2.37 mmol/L
same,TG,[8]; [13],0.78 ± 0.27 mmol/L
same,HDL-C,[8]; [14],lower
same,TC,[8]; [14],lower
same,TG,[8]; [14],lower
